We go through 28 molecules from US10294212B2 (CURADEV PHARMA PRIVATE LTD., priority 2013, dated 2019).

Assay [1] addresses Human TDO (hTDO)-transfected CHO-K1 cells (Homo sapiens (Human), UniProt P48775). The assay is described as follows: CHO-K1 cell based TDO assay. The following applies: hTDO cellular assay. In outline:
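Stably hTDO-expressing CHO-K1 cells were exposed to compounds (typically 31 μM to 10 nM) in HBSS with 80 μM L-tryptophan for 2 h. TCA-treated supernatant was heated at 65° C for 15 min to convert N-formylkynurenine, then kynurenine was quantified by LC/MS/MS. IC50 came from percent inhibition versus DMSO control.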

A further assay has as its target IDO1 in HeLa cells (Homo sapiens (Human), UniProt P14902). Put plainly: HeLa cell based IDO1 assay (IFNγ-induced, KYN in supernatant). The essentials:
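HeLa cells were induced overnight with IFNγ (50 ng/mL), washed, then exposed to compound (typically 10 μM–1 nM) in HBSS with 80 μM L-tryptophan. Supernatant was TCA-treated at 65 °C for 15 min to convert N-formylkynurenine, and KYN was measured by HPLC-UV at 360 nm. IC50 came from nonlinear regression against a 1% DMSO control.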

The target of assay [2] is Human indoleamine 2,3-dioxygenase1 (hIDO1) (Homo sapiens (Human), UniProt P14902). Put plainly: In-vitro IDO1 enzyme assay (conversion of L-tryptophan to KYN). The assay is classed as biochemical. As to conditions: read-out: IC50 (IDO1) Enz. In outline:
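His-tagged hIDO1 (10 nM, E. coli-expressed) incubated with 30 μM L-tryptophan, 20 mM ascorbate, 10 μM methylene blue and 100 μg/mL catalase in 50 mM potassium phosphate pH 6.5, 30 min at 37 °C. TCA stop, then 65 °C hydrolysis; KYN measured by HPLC-UV at 360 nm or LC/MS/MS. IC50 by nonlinear regression versus 1% DMSO control.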

pIC50: −log10 of the molar value.

Sequence of Human TDO (hTDO)-transfected CHO-K1 cells (P48775 whole entry): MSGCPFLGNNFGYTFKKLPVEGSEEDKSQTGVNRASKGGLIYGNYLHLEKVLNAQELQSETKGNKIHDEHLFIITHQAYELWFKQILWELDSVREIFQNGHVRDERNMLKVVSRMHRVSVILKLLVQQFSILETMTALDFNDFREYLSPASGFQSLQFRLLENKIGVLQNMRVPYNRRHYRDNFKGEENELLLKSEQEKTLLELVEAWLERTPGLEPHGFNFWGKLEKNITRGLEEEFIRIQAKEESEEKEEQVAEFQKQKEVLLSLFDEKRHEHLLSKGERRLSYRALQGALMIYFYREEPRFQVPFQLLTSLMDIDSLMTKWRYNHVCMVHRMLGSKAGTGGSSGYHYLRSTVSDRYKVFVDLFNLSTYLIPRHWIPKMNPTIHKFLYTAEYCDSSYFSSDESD
Sequence of IDO1 in HeLa cells (P14902 whole entry): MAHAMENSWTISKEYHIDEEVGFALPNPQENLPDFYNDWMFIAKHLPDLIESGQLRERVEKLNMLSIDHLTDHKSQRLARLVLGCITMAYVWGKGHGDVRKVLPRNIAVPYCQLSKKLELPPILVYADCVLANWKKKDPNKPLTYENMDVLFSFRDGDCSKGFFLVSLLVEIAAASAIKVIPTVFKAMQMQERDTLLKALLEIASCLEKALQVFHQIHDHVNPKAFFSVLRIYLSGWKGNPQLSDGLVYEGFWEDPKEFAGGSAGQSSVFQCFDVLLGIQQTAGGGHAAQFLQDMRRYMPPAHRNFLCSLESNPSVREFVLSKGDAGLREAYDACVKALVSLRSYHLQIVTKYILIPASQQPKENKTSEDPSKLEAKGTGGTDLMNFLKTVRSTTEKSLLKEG
Sequence of Human indoleamine 2,3-dioxygenase1 (hIDO1) (P14902 whole entry): as above

`Nc1sc2c(-c3ccccc3)cccc2c1Nc1ccc(F)c(Cl)c1` [Compound 233, N^3-(3-Chloro-4-fluorophenyl)-7-phenylbenzo[b]thiophene-2,3-diamine]: the pIC50 in assay [1] was < 5.70; at IDO1 in HeLa cells, > 6.70; in assay [2], > 6.70.
As to `Nc1sc2ccccc2c1Nc1cccc(Cl)c1` [Compound 234, N^3-(3-Chlorophenyl)benzo[b]thiophene-2,3-diamine], the pIC50 is > 6.30 in assay [1], > 6.70 at IDO1 in HeLa cells and > 6.70 in assay [2].
For `COc1cccc(Nc2c(N)sc3ccccc23)c1` [Compound 235, N^3-(3-Methoxyphenyl)benzo[b]thiophene-2,3-diamine], the pIC50 in assay [1] was > 6.30; against IDO1 in HeLa cells, > 6.70; in assay [2] it was 6.00 to 6.70.
For the molecule `Nc1sc2ccccc2c1Nc1ccc2c(c1)OCO2` [Compound 236, N^3-(benzo[d][1,3]dioxol-5-yl)benzo[b]thiophene-2,3-diamine], the negative-log IC50 (pIC50) is < 5.70 in assay [1], > 6.70 against IDO1 in HeLa cells and > 6.70 in assay [2].
As for `Cc1cc(Br)ccc1Nc1c(N)sc2ccccc12` [Compound 237, N^3-(4-Bromo-2-methylphenyl)benzo[b]thiophene-2,3-diamine], the pIC50 in assay [1] is < 5.70; at IDO1 in HeLa cells, 6.00 to 6.70; in assay [2], < 6.00.
The like results for `Cc1cc(-c2nccc3c(Nc4cccc(Cl)c4)c(N)oc23)ccn1` [Compound 238, N^3-(3-Chlorophenyl)-7-(2-methylpyridin-4-yl)furo[2,3-c]pyridine-2,3-diamine] were, in that order, 5.70 to 6.30, > 6.70 and > 6.70.
The like results for `Cc1cc(-c2nccc3c(Nc4ccccc4)c(N)oc23)ccn1` [Compound 239, 7-(2-Methylpyridin-4-yl)-N^3-phenylfuro[2,3-c]pyridine-2,3-diamine] were, in that order, > 6.30, > 6.70 and > 6.70.
`Cc1cc(-c2cccc3c(Nc4ccc(F)c(Cl)c4)c(N)sc23)ccn1` [Compound 240, N^3-(3-Chloro-4-fluorophenyl)-7-(2-methylpyridin-4-yl)benzo[b]thiophene-2,3-diamine]: the results for the negative-log IC50 (pIC50) (in assay [1]; against IDO1 in HeLa cells; in assay [2]) were < 5.70, > 6.70 and > 6.70, respectively.
`Cc1cc(-c2nc(F)cc3c(Nc4ccc(F)cc4)c(N)oc23)ccn1` [Compound 241, 5-Fluoro-N^3-(4-fluorophenyl)-7-(2-methylpyridin-4-yl)furo[2,3-c]pyridine-2,3-diamine]: the pIC50 in assay [1] was > 6.30; against IDO1 in HeLa cells, > 6.70; in assay [2], > 6.70.
As to `Cc1cc(-c2nccc3c(Nc4cccc(F)c4)c(N)oc23)ccn1` [Compound 243, N^3-(3-Fluorophenyl)-7-(2-methylpyridin-4-yl)furo[2,3-c]pyridine-2,3-diamine], the pIC50 is > 6.30 in assay [1], > 6.70 against IDO1 in HeLa cells and > 6.70 in assay [2].
In the case of `Cc1cc(-c2nc(F)cc3c(Nc4ccc(F)c(Cl)c4)c(N)oc23)ccn1` [Compound 244, N^3-(3-Chloro-4-fluorophenyl)-5-fluoro-7-(2-methylpyridin-4-yl)furo[2,3-c]pyridine-2,3-diamine], the pIC50 is 5.70 to 6.30 in assay [1], > 6.70 against IDO1 in HeLa cells and > 6.70 in assay [2].
For `Nc1oc2c(N3CCOCC3)nccc2c1Nc1ccc(F)c(Cl)c1` [Compound 245, N^3-(3-Chloro-4-fluorophenyl)-7-morpholinofuro[2,3-c]pyridine-2,3-diamine], the results for the pIC50 (in assay [1]; at IDO1 in HeLa cells; in assay [2]) were 5.70 to 6.30, > 6.70 and > 6.70, respectively.
With `Cc1cc(-c2nc(F)cc3c(Nc4ccc(F)c(F)c4)c(N)oc23)ccn1` [Compound 246, N^3-(3,4-Difluorophenyl)-5-fluoro-7-(2-methylpyridin-4-yl)furo[2,3-c]pyridine-2,3-diamine], the pIC50 is 5.70 to 6.30 in assay [1], > 6.70 against IDO1 in HeLa cells and > 6.70 in assay [2].
Regarding `Nc1oc2c(-c3ccc4ccccc4c3)nccc2c1Nc1ccc(F)c(Cl)c1` [Compound 247, N^3-(3-Chloro-4-fluorophenyl)-7-(naphthalen-2-yl)furo[2,3-c]pyridine-2,3-diamine], the values for the pIC50 (in assay [1]; at IDO1 in HeLa cells; in assay [2]) were < 5.70, > 6.70 and > 6.70, respectively.
As to `Cc1cc(-c2cccc3c(Nc4cccc(Cl)c4)c(N)sc23)ccn1` [Compound 248, N^3-(3-Chlorophenyl)-7-(2-methylpyridin-4-yl)benzo[b]thiophene-2,3-diamine], the pIC50 in assay [1] was 5.70 to 6.30; on IDO1 in HeLa cells, > 6.70; in assay [2] it was > 6.70.
On to `Nc1oc2c(-c3ccnc(C(=O)Nc4ccccc4)c3)nccc2c1Nc1ccc(F)c(Cl)c1` [Compound 249, 4-(2-Amino-3-((3-chloro-4-fluorophenyl)amino)furo[2,3-c]pyridin-7-yl)-N-phenylpicolinamide], for which the pIC50 in assay [1] is < 5.70; against IDO1 in HeLa cells, 6.00 to 6.70; in assay [2] it was > 6.70.
The like results for `CCCCNC(=O)c1cc(-c2nccc3c(Nc4ccc(F)c(Cl)c4)c(N)oc23)ccn1` [Compound 250, 4-(2-Amino-3-((3-chloro-4-fluorophenyl)amino)furo[2,3-c]pyridin-7-yl)-N-butylpicolinamide] were, in that order, < 5.70, > 6.70 and > 6.70.
The like results for `CC(C)(C)NC(=O)c1cc(-c2nccc3c(Nc4ccc(F)c(Cl)c4)c(N)oc23)ccn1` [Compound 251, 4-(2-Amino-3-((3-chloro-4-fluorophenyl)amino)furo[2,3-c]pyridin-7-yl)-N-(tert-butyl)picolinamide] were, in that order, < 5.70, > 6.70 and > 6.70.
For the molecule `CC(C)CNC(=O)c1cc(-c2nccc3c(Nc4ccc(F)c(Cl)c4)c(N)oc23)ccn1` [Compound 252, 4-(2-Amino-3-((3-chloro-4-fluorophenyl)amino)furo[2,3-c]pyridin-7-yl)-N-isobutylpicolinamide], the pIC50 in assay [1] is < 5.70; at IDO1 in HeLa cells it was > 6.70; in assay [2], > 6.70.
For `CCCNC(=O)c1cc(-c2nccc3c(Nc4ccc(F)c(Cl)c4)c(N)oc23)ccn1` [Compound 253, 4-(2-Amino-3-((3-chloro-4-fluorophenyl)amino)furo[2,3-c]pyridin-7-yl)-N-propylpicolinamide], the negative logarithm of the IC50 (pIC50) was < 5.70 in assay [1], > 6.70 at IDO1 in HeLa cells and > 6.70 in assay [2].
On to `Cc1cc(-c2nc(F)cc3c(Nc4cccc(Cl)c4)c(N)oc23)ccn1` [Compound 254, N^3-(3-Ahlorophenyl)-5-fluoro-7-(2-methylpyridin-4-yl)furo[2,3-c]pyridine-2,3-diamine], for which the pIC50 is 5.70 to 6.30 in assay [1], > 6.70 against IDO1 in HeLa cells and > 6.70 in assay [2].
Consider `Cc1cc(-c2nccc3c(Nc4ccc(F)cc4F)c(N)oc23)ccn1` [Compound 256, N^3-(2,4-Difluorophenyl)-7-(2-methylpyridin-4-yl)furo[2,3-c]pyridine-2,3-diamine], for which the pIC50 was > 6.30 in assay [1], > 6.70 at IDO1 in HeLa cells and > 6.70 in assay [2].
For the molecule `Nc1oc2c(-c3ccnc(C(=O)NC4CCCCC4)c3)nccc2c1Nc1ccc(F)c(Cl)c1` [Compound 257, 4-(2-Amino-3-((3-chloro-4-fluorophenyl)amino)furo[2,3-c]pyridin-7-yl)-N-cyclohexylpicolinamide], the pIC50 in assay [1] was < 5.70; against IDO1 in HeLa cells it was > 6.70; in assay [2], > 6.70.
Regarding `Nc1oc2c(-c3cc(Cl)cc(Cl)c3)nccc2c1Nc1ccc(F)c(Cl)c1` [Compound 258, N^3-(3-Chloro-4-fluorophenyl)-7-(3,5-dichlorophenyl)furo[2,3-c]pyridine-2,3-diamine], the pIC50 was < 5.70 in assay [1], 6.00 to 6.70 against IDO1 in HeLa cells and > 6.70 in assay [2].
The like results for `CC(C)(C)c1cc(-c2nccc3c(Nc4ccc(F)c(Cl)c4)c(N)oc23)ccn1` [Compound 259, 7-(2-(tert-Butyl)pyridin-4-yl)-N^3-(3-chloro-4-fluorophenyl)furo[2,3-c]pyridine-2,3-diamine] were, in that order, < 5.70, 6.00 to 6.70 and > 6.70.
Turning to `Nc1oc2c[n+]([O-])ccc2c1Nc1ccc(F)c(Cl)c1` [Compound 260, 2-Amino-3-((3-chloro-4-fluorophenyl)amino)furo[2,3-c]pyridine 6-oxide], the pIC50 in assay [1] was 5.70 to 6.30; on IDO1 in HeLa cells, 6.00 to 6.70; in assay [2] it was 6.00 to 6.70.
On to `Nc1oc2c(-c3ccc4c(c3)OCO4)nccc2c1Nc1ccc(F)c(Cl)c1` [Compound 261, 7-(Benzo[d][1,3]dioxol-5-yl)-N^3-(3-chloro-4-fluorophenyl)furo[2,3-c]pyridine-2,3-diamine], for which the pIC50 is 5.70 to 6.30 in assay [1], > 6.70 against IDO1 in HeLa cells and > 6.70 in assay [2].
Turning to `CCc1cc(-c2nccc3c(Nc4ccc(F)c(Cl)c4)c(N)oc23)ccn1` [Compound 262, N^3-(3-Chloro-4-fluorophenyl)-7-(2-ethylpyridin-4-yl)furo[2,3-c]pyridine-2,3-diamine], the pIC50 was 5.70 to 6.30 in assay [1], > 6.70 against IDO1 in HeLa cells and > 6.70 in assay [2].

What is called pIC50 is −log10 of the IC50, conventionally taken in molar units.
